Where “and” joins values, the source holds several entries; their conditions need not be identical. Equal entries are not always repeated. Entries after “also recorded” stand apart in the source; their conditions may differ. Where two headings read alike, the source gives them in different places.
Assays:
[1] = In vitro stability in RPMI 1640 medium; assay type: physicochemical; settings: 37 °C, up to 6 hours, radio-HPLC
Procedure: The specific activity of [^211At]At-TMP and [^125I]I-TMP was determined by comparison of radioactivity to the area under 288-nm ultraviolet light peak on radio-HPLC. The in vitro stability of [^211At]At-TMP was examined with incubation in Roswell Park Memorial Institute (RPMI) 1640 medium at 37 °C for up to 6 hours, followed by radio-HPLC analysis.

I45 and SKOV3 cells = assay: Cytotoxicity in wild-type and eDHFR-YFP-expressing I45 and SKOV3 cells; assay type: cell-based, human
Procedure: After 72 hours of incubation, the surviving fraction of the cells was quantified using CellTiter-Glo (Promega #G9243). See, Makvandi, Molecular cancer therapeutics. […] The assay was performed three times in triplicates. […] See, Lee, Journal of nuclear medicine.

eDHFR [2] = molecular target: T1, eDHFR (Escherichia coli, UniProt P0ABQ4); assay: Differential scanning fluorimetry (thermal shift assay); assay type: binding; settings: 0.1 mg/mL protein, 10 mM stock compound, 20-95 °C ramp
T1 sequence (P0ABQ4 1-159): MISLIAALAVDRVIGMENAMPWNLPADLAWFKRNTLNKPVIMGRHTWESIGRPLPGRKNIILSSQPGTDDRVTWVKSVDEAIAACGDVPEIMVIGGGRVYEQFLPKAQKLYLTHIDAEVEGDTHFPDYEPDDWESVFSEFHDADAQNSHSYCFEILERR
Procedure: Purified protein is diluted to 0.1 mg/mL protein in 500 μL in mild buffer, 25 mM HEPES pH=7.5, 200-500 mM NaCl, DTT. 17 μL of the 0.1 mg/mL protein sample is aliquoted into an opaque white 384 well PCR plate. Then 2 μL of stabilizing additive or 1 μL additive and 1 μL of concentrated drug (10 mM TMP or 10 mM cold mI-TMP or vehicle, plus 1 μL of 1×SYPRO Orange dye was added and the total well volume is 20 μL. The plate is sealed with clear optical cover, protect it from light with foil, and let it incubate for 5 minutes. Then the plate is centrifuged at 3,600×g for 2 minutes. The plate is analyzed on RT-PCR machine using a temperature-ramp method that ranges from 20-95 °C.

eDHFR [3] = molecular target: T1, eDHFR; assay type: cell-based; settings: for affinity for eDHFR binding in cells: HCT116 cells, non-radiolabeled, vs para-benzyl-iodo-TMP; for EC50: read-out: EC50 for eDHFR binding, HCT-116 cells, tsLuc-DD-DHFR, compounds not radiolabeled
Serum stability in FBS = assay type: in vitro ADME; settings: non-radioactive compound, FBS, 37 °C, 72 h
Procedure: In vitro serum stability of was performed by adding the [^131I]mI-TMP (50 μL, 1.85 MBq) to fetal bovine serum (500 μL). The mixture was then incubated in a ThermoMixer (800 rpm) at 37 °C, and deiodination was analyzed by radio-TLC (10% NH40Ac:MeOH=3:7) at 0, 24, and 72 h. In this condition, free I-131 moved to solvent front whereas intact [^131I]I-TMP remained at the origin.

IMR5 cells = assay: Cytotoxicity in IMR5 cells with subcellular eDHFR-YFP; assay type: cell-based, human
Procedure: Using standard cloning procedures and DNA sequence synthesis, the recombinant eDHFR protein was modified in the following ways. First, the eDHFR nucleotide sequence was extended with a yellow fluorescent protein (YFP) domain at the C-terminus to construct a fusion eDHFR-YFP protein. See, Sellmyer, Mol Ther 2020; 28:42-51. Then, one of the following localization domains was added: simian virus 40 nuclear localization signal (NLS) at the N-terminus, human immunodeficiency virus Rev protein nuclear export signal (NES) at the C-terminus, and Saccharolobus solfataricus P2 DNA-binding domain 7d (DNAB) at the N-terminus. See, Kobayashi, Antimicrob Agents Chemother 2006; 50:1118-1119; and Kalichuk, Sci Rep 2016; 6:37274. The resulting library of pUC57 plasmids, each containing one of NLS-eDHFR-YFP, eDHFR-YFP-NES, and DNAB-eDHFR-YFP, were successfully cloned into a lentiviral vector. The lentiviral plasmids were introduced into HEK293T cells for viral production and isolation.
Then, three human cancer cell lines were cultured: HCT116 (colorectal cancer), IMR5 (neuroblastoma), and SKOV3 (ovarian cancer). They were transfected with the three lentiviral constructs for expression of NLS-eDHFR-YFP, eDHFR-YFP-NES, and DNAB-eDHFR-YFP, resulting in nine cell lines in total. Subcellular localization of eDHFR-YFP in the cell lines was verified with fluorescence microscopy.
Cytotoxicity experiments were performed as follows: wild-type IMR5 cells as well as those expressing eDHFR-YFP localized to the DNA, nucleus, and cytoplasm were treated with various concentrations of ^211At-PAB-TMP for 72 hours. The survival fraction for each treatment condition was measured with luminescent cell viability assay.
The resulting survival vs. dose curves were analyzed to determine effective concentrations for 50% reduction in cell viability (EC50). See, FIGS. 16A-16C. […] See, FIGS. 16A-16C. […] 6; 20(7): 1752-1755.

eDHFR [4] = molecular target: T1, eDHFR; settings: HEK293T-eDHFR-YFP vs HEK 293 WT; 0.037 MBq, 1 hour; 60 min
eDHFR-YFP = molecular target: T2, eDHFR-YFP (Escherichia coli, UniProt P0ABQ4); assay: Radioligand binding to eDHFR-YFP expressing cells; parameters: species or system E. coli; settings: read-out: Kd
T2 sequence (P0ABQ4 1-159): T1 sequence (P0ABQ4 1-159)
Procedure: Due to the high specific activity of [^211At]At-TMP that limits its working concentration to pM range, [^125I]I-TMP was used for saturation binding studies to determine Bmax.
eDHFR-YFP-positive I45 and SKOV3 cells were plated on 96-well plates (Corning #9102) at the density of 25,000 cells/well and 40,000 cells/well, respectively, in complete growth media 24 hours before the assay. […] After incubation at 37 °C for 90 minutes, the wells were aspirated and washed twice with ice-cold PBS. The radioactivity in each well was measured with a Perkin Elmer Wizard gamma counter. The assay was performed three times in triplicates. […] See, Swillens, Molecular pharmacology. 1995; 47(6):1197-203. The corresponding EC50 values were plotted against the receptor concentration/2 to determine the Kd. See, Hulme, British journal of pharmacology. 2010; 161(6):1219-37. The Bmax values were correlated with the total YFP florescence from the wells, with a correction factor of 2.5 and 2.2 for membrane-bound eDHFR-YFP in I45 and SKOV3, respectively, in order to account for decreased fluorescence per molecule from addition of the membrane localization signal to YFP. See, Wu, Science. 2005; 310(5746):310-4; and Bakholdina, Molecules. 2021; 26(13).
For determination of the Kd of [^211At]At-TMP, the binding assay protocol was repeated in I45 and SKOV3 cells expressing cytoplasmic eDHFR-YFP, using 150 μL of 0.06-60 nM [^125I]I-TMP±10 μM TMP for half of each 96-well plate and 50-260 μL of […] [^211At]At-TMP±10 μM TMP for the remaining half. The Bmax of each plate determined from [^125I]I-TMP binding was divided by the assay volumes used for [^211At]At-TMP to calculate the total receptor concentration ([RT]) in each [^211At]At-TMP well. The ligand depletion (δ) in each [^211At]At-TMP well was obtained by dividing the bound radioactivity by total added radioactivity. The assay was performed four times in triplicates. As derived in Supplemental Methods 1, δ^−1 was plotted against [RT]^−1 to determine the Kd as the slope of the linear best-fit line.
Supplemental Method 1. Measurement of the dissociation constant (Kd) of [^211At]At-TMP binding to eDHFR under non-saturating, ligand-depleting conditions. When [Ligand]<<Kd, ligand depletion (6) at equilibrium is
where [R] is the free receptor concentration and [RT]is the total receptor concentration. Since 6 is non-zero, taking the reciprocal of both sides of the equation yields
[formula] • If a δ^−1 vs. [RT]^−1 graph where y=δ^−1 and x=[RT]^−1 is plot,
Therefore, the slope of the linear best-fit line represents the Kd and the y-intercept is 1.

OVCAR8-eDHFR-Luc cells = assay: Kill assay (MTT) in OVCAR8-eDHFR-Luc cells; assay type: cell-based, human; settings: 18.5 MBq, 1 h; viability to day 12
Procedure: Following the same uptake protocol till washing after the third wash the cells were counted using cell counter and they were diluted to generate even number of cells/mL. […] We've applied the same blocked conditions used in the uptake assay. […] Then cells will be re-distributed into 96 well plates (2,000 cells/well) with fresh media to monitor cell proliferation by MTT assay on days 1, 3, 7 and 10. A total of 9 wells (3×3) were measured on the plate per sample per time point. To complete the assay cell media was removed and replaced with 50 μL of serum free media and 50 μL of MTT reagent. The plates were covered with tin foil and incubated at 37 °C for 3 hours. The plates were shaken at 200 rpm at 37 °C for 15 min. Using the microplate plate reader, sample absorbance was measured at 590 nm for 600 ms. Controls included [^131I]NaI treated cells and blocking with 10 μM parent TMP (unlabeled). An analogous procedure was used for the OVCAR8-eDHFR-Luc kill assay with different doses (1.85-37 MBq) and treatment times.
To investigate the therapeutic potential of m[^131I]mI-TMP 5b in tumor cell lines, OVCAR8 eDHFR+ cells were exposed to varying doses (ranging from 1.85-37 MBq) of the radiotracer of 5b at different incubation times. Different conditions were employed to assess the selective therapeutic effect of the radio tracer on eDHFR+ cells. To determine the specific killing of eDHFR+ tumor cells, blocked conditions were analyzed. The cell viability of compound 5b-treated cells was also compared with the cells exposed to [^131I]I—Na. Additionally, untreated cells were used as controls. The MTT assay was used to measure the cell viability of the cells under the aforementioned conditions on days 1, 3, 7, and 12.
OVCAR8-eDHFR-Luc+ cells were treated with 1.85 and 18.5 MBq of m[^131I]mI-TMP 5b and [^131I]I—Na, incubated for 1 hour. […] The cell viability of the compound 5b-treated cells was similar to cells under blocked, [^131I]NaI, and no drug conditions. See, FIG. 2A. […] See, FIG. 2B. Based on the results obtained, a continued dose escalation was considered to better understand the therapeutic window. Finally, OVCAR_eDHFR+ cells were tested with 37 MBq dose of m[^131I]mI-TMP.

## COc1cc(Cc2cnc(N)nc2N)cc([211At])c1OC [[^211At]At-TMP]
[1]
  in vitro stability in aqueous media: stability of [^211At]TMP in aqueous media for up to 6 hours

## COc1cc(Cc2cnc(N)nc2N)cc(OC)c1OC [TMP, trimethoprim]
I45 and SKOV3 cells; 40 μM, all cell types
  cytotoxicity at the lowest TMP concentration: non-toxic
I45 and SKOV3 cells; 72 h
  cytotoxicity from non-radiolabeled TMP in cells expressing membrane-bound eDHFR-YFP: higher cytotoxicity

## COc1cc(Cc2cnc(N)nc2N)cc(I)c1OC [mI-TMP, 5-(3-iodo-4,5-dimethoxybenzyl)pyrimidine-2,4-diamine]
eDHFR [2]
  stabilization of eDHFR in thermal shift assay (DSF): stabilizes eDHFR as TMP
eDHFR [2]; listed as TMP-I (3b)
  stabilization of eDHFR in thermal shift assay (DSF): strongly stabilizes eDHFR, similar to TMP
eDHFR [3]
  affinity for eDHFR binding in cells: higher affinity for eDHFR binding in cells than the para-benzyl-iodo-TMP
  EC50: 5 nM
Serum stability in FBS
  stability in FBS by LCMS: confirmed the stability of TMP-I (3a) in FBS

## COc1cc(Cc2cnc(N)nc2N)cc(OC)c1OCc1ccc([211At])cc1 [^211At-PAB-TMP, ^211At-para-astatobenzyl-trimethoprim]
IMR5 cells; IMR5 cells, 72 hours, luminescent viability
  cytotoxicity by eDHFR-YFP subcellular location: Higher cytotoxicity was seen with increasing proximity to DNA, resulting in significantly lower EC50 values; also recorded: highest in the IMR5 cells expressing DNA-bound eDHFR-YFP, followed by nuclear and cytoplasmic eDHFR-YFP

## COc1cc(Cc2cnc(N)nc2N)cc([125I])c1OC [[^125I]mI-TMP, 5-(3-iodo-4,5-dimethoxybenzyl)pyrimidine-2,4-diamine]
eDHFR [4]
  uptake of the radiotracer in eDHFR+ cells relative to WT cells: ~ 50 fold and ~ 30 fold
eDHFR-YFP; I45 cells
  Kd: 0.65 ± 0.11 nM
eDHFR-YFP; SKOV3 cells
  Kd: 0.13 ± 0.17 nM

## O=C1NCCn2c(-c3ccc([211At])cc3)nc3cccc1c32 [^211At-PTT, reference compound]
IMR5 cells; positive control
  difference in cytotoxicity among the eDHFR IMR5 cells: no difference in cellular toxicity; also recorded: did not result in difference in cytotoxicity among the IMR5 cells

## ^211At-para-astatobenzyl-trimethoprim [^211At-PAB-TMP]
IMR5 cells
  killing of eDHFR expressing neuroblastoma cells: enhanced killing of eDHFR expressing neuroblastoma cells

## COc1cc(Cc2cnc(N)nc2N)cc(Br)c1OC [mBr-TMP]
eDHFR [3]
  affinity for eDHFR binding in cells: higher affinity for eDHFR binding in cells than the para-benzyl-iodo-TMP
  EC50: 5 nM

## COc1cccc2c1C(=O)c1c(O)c3c(c(O)c1C2=O)C[C@@](O)(C(=O)CO)C[C@@H]3O[C@H]1C[C@H](N)[C@H](O)[C@H](C)O1 [doxorubicin, reference compound]
I45 and SKOV3 cells; 72 h, 10 nM-1 μM
  cytotoxicity of doxorubicin, wild-type vs eDHFR-YFP-expressing cells: comparable cytotoxicity; also recorded: comparable chemosensitivity

## [131I-].[Na+] [[^131I]I—Na, reference compound]
OVCAR8-eDHFR-Luc cells
  cytotoxic effect / cell viability: showed viability and significant growth

— patent US20260364213A1, “RADIOLABELED COMPOUNDS OF TRIMETHOPRIM AND USES THEREOF” (THE TRUSTEES OF THE UNIVERSITY OF PENNSYLVANIA, priority 2023, published 2026)
